How the values were obtained:
[1] = test system: bladder tissue of adult female Wistar rats; assay: bladder tissue slices and perfusion unit after para-phenylenediamine; type: in vivo; details: PPD i.p. for 4 weeks vs control group
Procedure: (§1) In the current embodiment, 24 adult female Wistar rats were adopted as the experimental animals in the animal experiments and were randomly divided into four groups to be treated with different intraperitoneal injections. Referring to Table 1, the four groups are as follows: 1) the control group: 1 mL/day saline solution for 4 weeks; 2) the first experimental group: PPD (60 […]) for 4 weeks; 3) the second group: PPD ([…]) for 4 weeks and a drug (1.5 mg/kg/day) prepared from WCT003 for the last 2 weeks of; 4) the third experimental group: PPD (60 μg/kg/day) for 4 weeks and a drug (1.5 mg/kg/day) prepared from WCT006 for the last 2 weeks.
It could be known from the experiment data that para-phenylenediamine induces inflammatory response and ischemia in the bladders of the rats in the first experimental group.

adult female Wistar rats = assay: metabolic cage sample data; type: in vivo
Procedure: as §1
Referring to Table 2, which lists the sample data collected from the rats of the control group and the first experimental group where were placed in the metabolic cage: […]

[2] = test system: bladder of adult female Wistar rats; assay: intravesical pressure measurement in para-phenylenediamine-treated rats; type: in vivo
Procedure: as §1
Then, each group of the rats were anesthetized with urethane (1.2 g/kg) via percutaneously injection, and a catheter was placed in a left femoral artery of each of the rats to measure arterial pressure (ABP). Meanwhile, intravesical pressure of the rats were also measured to obtain the parameters such as bladder intercontraction interval (ICI), urination time (MT), maximum urination pressure (MVP), contraction amplitude (A=MVP-BP), urination pressure threshold (PT), etc., as shown in FIG. 3 to FIG. 5.

reactive oxygen species = assay: luminol and lucigenin chemiluminescence of blood or urine samples (in vitro); parameters: species or system Wistar rats; details: PPD i.p. for 4 weeks
Procedure: To determine the effect of the drug prepared from the nickel complex WCt003 and WCt006 on eliminating reactive oxygen species, a luminol and lucigenin chemiluminescence (CL) method was utilized. The method includes the following steps: 0.2 ml sample of blood or urine was mixed with 0.5 ml of 1 mmol/L lucigenin or 0.2 mmol/L luminol, and then the mixture was analyzed with a chemiluminescence analysis system, wherein, the recorded signals were corresponding to the hydrogen peroxide (H2O2) and hypochlorous acid (HOCl) count in the luminol method, while the recorded signals were corresponding to the superoxide anion (O2^−) count in the lucigenin method.

[3] = test system: reactive oxygen species in the bladder cells; assay: reactive oxygen species count in the bladder (in vivo); parameters: species or system Wistar rats; details: PPD alone i.p. for 4 weeks, FIG. 9 and 10
Procedure: as §1
FIG. 10 show the analytical data of the reactive oxygen species count in vivo for each group of rats. It could be seen from FIG. 9 and FIG. 10 that the reactive oxygen species count in the bladder cells of the first experimental group of rats is much higher than that of the control group.

[4] = first experimental group: PPD i.p. for 4 weeks
[5] = first experimental group: PPD alone i.p. for 4 weeks

With Nc1ccc(N)cc1 [para-phenylenediamine] the “mast cell in the bladder” value ([1]; FIG. 1) was “significant increase”, the “neutrophil infiltration in the bladder tissue” value ([1]; FIG. 1) was “have neutrophil infiltration in the bladder tissue” and the perfusion unit ([1]; FIG. 2) was “reduced”. The “stool vs control group” value (adult female Wistar rats; PPD i.p. for 4 weeks, in words) was “more”, the “urinary frequency vs control group” value (adult female Wistar rats; PPD i.p. for 4 weeks, in words) was “more frequent” and the “urine vs control group” value (adult female Wistar rats; PPD i.p. for 4 weeks, in words) was “more”. The “Body Weight” value (adult female Wistar rats; [4]) was 277.8 ± 3.8 g, the Food (adult female Wistar rats; [4]) was 22.9 ± 4.4 g and the Stool (adult female Wistar rats; [4]) was 35.7 ± 8.1 g. For the same molecule, the “Urinary frequency (24 hours)” value (adult female Wistar rats; [4]) was 53.1 ± 13.3, the Urine (adult female Wistar rats; [4]) was 32.7 ± 7.5 mg and the Water intake (adult female Wistar rats; [4]) was 57.7 ± 7.2 mL. The “bladder intercontraction interval vs control group” value ([2]; PPD i.p., in words, Table 3 and FIG. 6) was “significantly shorter”, the “A (contraction amplitude)” value [2, 5] was 20.3 ± 0.9 mmHg and the “ICI (bladder intercontraction interval)” value [2, 5] was 35.8 ± 6.0 s. The “MVP (maximum urination pressure)” value [2, 5] was 30.6 ± 0.9 mmHg, the “O2− count in the blood sample vs control group” value (reactive oxygen species; blood, lucigenin, FIG. 8) was “higher” and the “H2O2 and HOCl counts in the blood sample vs control group” value (reactive oxygen species; blood, luminol, FIG. 8) was “significantly higher”. For the same molecule, the “reactive oxygen species count in urine samples vs control group” value (reactive oxygen species; urine, FIG. 7) was “no significant difference” and the “reactive oxygen species count in the bladder cells vs control group” value [3] was “much higher”.

Source: US20190343874A1, “USE OF NICKEL COMPLEX IN PREPARING DRUG FOR RELIEVING INFLAMMATION” (NATIONAL TAIWAN NORMAL UNIVERSITY, priority 2018, published 2019)
